One assay addresses T1, human MR (Homo sapiens, UniProt P08235).
T1 construct: The full length human MR gene is cloned from a human kidney or human brain cDNA library; His tag from the pAcHLT vector (own knowledge); made in house; host or cells: Sf9 insect cells (baculovirus, pAcHLT transfer vector)
T1 sequence (P08235 1-984): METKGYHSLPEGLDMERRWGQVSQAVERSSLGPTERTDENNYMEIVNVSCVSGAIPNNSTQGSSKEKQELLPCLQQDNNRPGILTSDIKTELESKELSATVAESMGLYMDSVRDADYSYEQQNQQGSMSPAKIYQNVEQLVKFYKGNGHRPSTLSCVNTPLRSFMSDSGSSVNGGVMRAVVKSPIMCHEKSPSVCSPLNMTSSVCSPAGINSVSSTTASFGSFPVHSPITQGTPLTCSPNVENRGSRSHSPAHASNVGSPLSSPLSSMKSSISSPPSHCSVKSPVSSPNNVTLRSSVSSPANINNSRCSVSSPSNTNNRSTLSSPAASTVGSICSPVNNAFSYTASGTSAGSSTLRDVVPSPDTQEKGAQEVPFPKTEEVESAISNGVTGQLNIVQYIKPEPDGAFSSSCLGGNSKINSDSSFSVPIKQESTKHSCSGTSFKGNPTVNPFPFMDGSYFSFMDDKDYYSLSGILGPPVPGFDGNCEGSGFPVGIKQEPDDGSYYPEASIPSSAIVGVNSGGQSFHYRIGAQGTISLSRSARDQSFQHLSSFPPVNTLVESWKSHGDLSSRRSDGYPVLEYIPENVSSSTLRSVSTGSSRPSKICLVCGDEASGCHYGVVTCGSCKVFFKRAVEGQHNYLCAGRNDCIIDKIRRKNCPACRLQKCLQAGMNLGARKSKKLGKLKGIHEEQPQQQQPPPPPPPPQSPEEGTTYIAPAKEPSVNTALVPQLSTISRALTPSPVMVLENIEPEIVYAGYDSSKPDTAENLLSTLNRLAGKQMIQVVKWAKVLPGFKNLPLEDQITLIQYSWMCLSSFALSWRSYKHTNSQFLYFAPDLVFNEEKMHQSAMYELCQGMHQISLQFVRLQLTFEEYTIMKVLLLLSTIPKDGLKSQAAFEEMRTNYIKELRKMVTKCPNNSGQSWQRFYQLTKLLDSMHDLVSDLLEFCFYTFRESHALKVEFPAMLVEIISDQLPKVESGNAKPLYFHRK
In words: Mineralocorticoid Receptor Binding Assay ([3H]-aldosterone). Particulars: [3H]-aldosterone binding, human MR expressed in Sf9 cells; read-out: MR Ki. The gist of the method: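 Receptor source: freeze-thaw lysate of baculovirus-infected Sf9 cells carrying full-length human MR, 20-25 μg protein. Incubation ~16 h at 4 °C with shaking, pH 7.5 buffer containing 30 mM sodium molybdate and 10% glycerol.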

The next assay deals with T2, glucocorticoid receptor (Homo sapiens, UniProt P04150).
T2 construct: containing 50-200 ug of A549 cell extract and 1.86 nM [^3H]-dexamethasone; host or cells: A549 human lung epithelial cells (sonicated cell extract)
T2 sequence (P04150 1-777): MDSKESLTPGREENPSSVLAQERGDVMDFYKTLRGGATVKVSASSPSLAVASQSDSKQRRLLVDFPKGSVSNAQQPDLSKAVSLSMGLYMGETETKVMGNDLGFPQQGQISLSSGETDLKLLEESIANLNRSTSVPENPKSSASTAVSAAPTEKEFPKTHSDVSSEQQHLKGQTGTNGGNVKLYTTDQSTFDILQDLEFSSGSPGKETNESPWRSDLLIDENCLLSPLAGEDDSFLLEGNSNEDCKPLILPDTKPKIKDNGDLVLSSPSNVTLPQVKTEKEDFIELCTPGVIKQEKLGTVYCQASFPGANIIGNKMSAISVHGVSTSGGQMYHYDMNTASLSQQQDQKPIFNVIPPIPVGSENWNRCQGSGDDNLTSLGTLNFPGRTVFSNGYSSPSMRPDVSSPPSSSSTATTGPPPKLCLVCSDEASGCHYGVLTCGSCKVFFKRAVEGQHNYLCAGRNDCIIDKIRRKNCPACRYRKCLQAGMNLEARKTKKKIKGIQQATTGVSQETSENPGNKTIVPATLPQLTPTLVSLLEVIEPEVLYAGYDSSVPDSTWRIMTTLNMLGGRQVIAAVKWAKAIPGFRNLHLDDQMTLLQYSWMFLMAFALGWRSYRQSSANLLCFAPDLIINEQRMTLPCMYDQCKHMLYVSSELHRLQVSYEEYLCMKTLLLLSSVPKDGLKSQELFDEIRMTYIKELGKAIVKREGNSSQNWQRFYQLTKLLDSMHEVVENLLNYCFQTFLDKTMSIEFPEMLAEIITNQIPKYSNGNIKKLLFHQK
In words: Glucocorticoid Receptor Binding Assay ([3H]-dexamethasone, A549 cell extract). Particulars: [3H]-dexamethasone binding, read-out: GR Ki. The gist of the method:
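Displacement of [3H]-dexamethasone (1.86 nM) from glucocorticoid receptor in sonicated A549 lung epithelial cell extracts, 16 h at 4 °C, pH 7.2 molybdate-containing buffer. Bound radioactivity was scintillation-counted after charcoal/dextran stripping of free ligand.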

Experimental findings from patent US20060063759A1, “Tricyclic steroid hormone nuclear receptor modulators” (priority 2002, published 2006) are described below.

As usually defined, the Ki is a measure of affinity in units of concentration, obtained from inhibition or displacement. As to `CS(=O)(=O)Nc1cccc(/C=C2\c3ccc(Cl)cc3COc3ccccc32)c1` [Example 725], the Ki at human MR and on glucocorticoid receptor was less than 500 nM throughout.
On to `CS(=O)(=O)Nc1cccc(/C=C2/c3ccc(Cl)cc3COc3ccccc32)c1` [Example 726], for which the Ki at human MR and on glucocorticoid receptor was less than 500 nM throughout.
With `CS(=O)(=O)Nc1cccc(/C=C2\c3cc(Cl)ccc3COc3ccccc32)c1` [Example 727], the Ki at human MR and on glucocorticoid receptor was less than 500 nM in each case.
Consider `CS(=O)(=O)Nc1cccc(/C=C2/c3cc(Cl)ccc3COc3ccccc32)c1` [Example 728], for which the Ki on human MR and on glucocorticoid receptor was less than 500 nM in each case.
Turning to `CS(=O)(=O)Nc1cccc(/C=C2/c3cc(F)ccc3COc3ccccc32)c1` [Example 729], the Ki at human MR and at glucocorticoid receptor was less than 500 nM each time.
Take `CS(=O)(=O)Nc1cccc(/C=C2\c3cc(F)ccc3COc3ccccc32)c1` [Example 730]: the Ki on human MR and at glucocorticoid receptor was less than 500 nM in each case.
For the compound `CS(=O)(=O)Nc1cccc(/C=C2/c3ccccc3OCc3c(F)cccc32)c1` [Example 731], the Ki at human MR and at glucocorticoid receptor was less than 500 nM each time.
Take `CS(=O)(=O)Nc1cccc(/C=C2\c3ccccc3OCc3c(F)cccc32)c1` [Example 732]: the Ki at human MR and at glucocorticoid receptor was less than 500 nM throughout.
In the case of `COc1cccc2c1COc1ccccc1[C@H]2Cc1cccc(NS(C)(=O)=O)c1` [Example 733], the Ki on human MR and at glucocorticoid receptor was less than 500 nM in each case.
On to `COc1ccc2c(c1)COc1ccccc1[C@H]2Cc1cccc(NS(C)(=O)=O)c1` [Example 734], for which the Ki at human MR and on glucocorticoid receptor was less than 500 nM in each case.
With `COc1ccc2c(c1)COc1cc(F)ccc1/C2=C\c1cccc(NS(C)(=O)=O)c1` [Example 735], the Ki at human MR and on glucocorticoid receptor was less than 500 nM in each case.
`COc1ccc2c(c1)COc1cc(F)ccc1/C2=C/c1cccc(NS(C)(=O)=O)c1` [Example 736]: the Ki at human MR and on glucocorticoid receptor was less than 500 nM throughout.
As for `COc1cccc2c1[C@H](Cc1cccc(NS(C)(=O)=O)c1)c1ccccc1OC2` [Example 737], the Ki on human MR and at glucocorticoid receptor was less than 500 nM each time.
With `COc1ccc2c(c1OC)CSc1ccccc1/C2=C/c1cccc(NS(=O)(=O)c2ccccc2)c1` [Example 738], the Ki on human MR and on glucocorticoid receptor was less than 500 nM in each case.
For the compound `O=S(=O)(Nc1cccc(/C=C2\c3ccccc3CSc3ccccc32)c1)c1ccccc1` [Example 739], the Ki on human MR and on glucocorticoid receptor was less than 500 nM each time.
For the compound `Cc1ccc2c(c1)CSc1ccccc1C2=Cc1cccc(NS(C)(=O)=O)c1` [Example 740], the inhibition constant Ki at human MR and on glucocorticoid receptor was less than 500 nM each time.
Consider `CS(=O)(=O)Nc1cccc(/C=C2/c3ccccc3CSc3cc(Cl)ccc32)c1` [Example 741], for which the Ki at human MR and at glucocorticoid receptor was less than 500 nM in each case.
For `CS(=O)(=O)Nc1cccc(/C=C2\c3ccccc3CSc3cc(Cl)ccc32)c1` [Example 742], the Ki on human MR and on glucocorticoid receptor was less than 500 nM throughout.
`Cc1ccc2c(c1)CSc1ccccc1/C2=C\c1cccc(NS(C)(=O)=O)c1` [Example 743]: the Ki on human MR and at glucocorticoid receptor was less than 500 nM each time.
Regarding `Cc1ccc2c(c1)CSc1ccccc1/C2=C/c1cccc(NS(C)(=O)=O)c1` [Example 744], the Ki on human MR and at glucocorticoid receptor was less than 500 nM each time.
With `CS(=O)(=O)Nc1cccc(/C=C2/c3ccccc3CSc3cc(F)ccc32)c1` [Example 745], the Ki on human MR and at glucocorticoid receptor was less than 500 nM each time.
Consider `CS(=O)(=O)Nc1cccc(/C=C2\c3ccccc3CSc3cc(F)ccc32)c1` [Example 746], for which the Ki at human MR and at glucocorticoid receptor was less than 500 nM in each case.
On to `COc1ccc2c(c1)SCc1ccccc1C2=Cc1cccc(NS(C)(=O)=O)c1` [Example 747], for which the Ki on human MR and at glucocorticoid receptor was less than 500 nM in each case.
For the compound `Cc1ccc2c(c1)SCc1ccccc1/C2=C/c1cccc(NS(C)(=O)=O)c1` [Example 748], the Ki on human MR and on glucocorticoid receptor was less than 500 nM each time.
